The values below come from patent publication US20080201790A1, “Method and product for regulating cell responsiveness to external signals” (priority 1993, published 2008).

The subject of one assay is B-Raf. Kind of assay: Raf activation assay in L929 cells, B-Raf. It is filed as cell-based, murine. Here is the method: Cell lines and culture. L929 cells (ATCC CCL1 were maintained in Dulbecco's modified Eagle's medium with 5% newborn calf serum and 5% bovine calf serum (BCS) supplemented with 100 ug/ml streptomycin and 100 U/ml penicillin. The cells were grown in 10 cm dishes at 37° C. in 7.5% CO2. Cells were made quiescent where indicated by incubation in Dulbecco's modified Eagle's medium and 0.1% bovine serum albumin for 24 h. Recombinant murine TNFα and recombinant human bFGF (147aa) were from R&D Systems, Minneapolis, Minn. Cells were pretreated where indicated with the MEK-1 inhibitor PD#098059 (Parke-Davis Pharmaceutical Corp. Ann Arbor, Mich.) for 1 h at 37° C. Cells were stimulated by incubation with the indicated cytokine or growth factor for various times at 37° C. […] JNK activity was measured using a solid state kinase assay in which glutathione S-transferase-c-Jun (1-79) (GST-JUN) cound to glutathione-Sepharose 4B beads was used to affinity purify JNK and then JNK activity was measured in an in vitro kinase assay using the sepharose bound GST-Jun as a substrate (Hibi, M., et al. (1993) Genes & Development 7:2135-2148). […] MAPK Assay MAPK activity was measured exactly as described previously (Gardner, A. M., et al. (1994) Meth. Enzymol. 238:258-270) with the exception that MonoQ FPLC fractionation was replaced by step elution from a DEAE-Sephacel column using 0.5 M NaCl in loading buffer. […]

In a further assay the test system is L929 fibroblasts. The assay can be described thus: TNF-induced apoptosis in L929 fibroblasts with Lac Switch MEKK1COOH expression. The format is cell-based, murine. An excerpt:
In L929 cells expressing the MEKK1COOH domain, exposure to TNF and IPTG increased the percentage of apoptotic cells to 40%, approximately a 2-fold increase.

In another assay the test system is MEKK1. The assay can be described thus: Cellular localization of MEKK1 in Swiss 3T3 cells, antibody staining. It is filed as cell-based. Particulars: serum starved Swiss 3T3 cells, 10 minutes. An excerpt:
(§1) Cells were fixed and stained with an antibody specifically recognizing either MEKK1 or MEKK2. Secondary FITC-conjugated anti-rabbit IgG antibody was used for staining.

In the next assay the test system is MEKK2. The assay can be described thus: Cellular localization of MEKK2 in Swiss 3T3 cells, antibody staining. The format is cell-based. The conditions noted are these: serum starved Swiss 3T3 cells, 10 minutes.
From the text: as §1

For the substance “bFGF: recombinant human bFGF (147aa), basic fibroblast growth factor”, the “activation of B-Raf (phosphorylation of kinase-inactive MEK-1)” value in the assay with B-Raf is “activation of both B-Raf and C-Raf”.

On to TNFα, for which, in the assay with L929 fibroblasts (TNF exposure, presence or absence of IPTG), the “percentage of apoptotic cells, control L929 cells” value is reported as “approximately 20%”. Moreover, the “level of apoptotic cells, L929 cells expressing the kinase inactive mutant” value in the assay with L929 fibroblasts (exposure to TNF) is “did not increase the level of apoptotic cells above levels seen in controls”. Further, in the assay with L929 fibroblasts (exposure to TNF and IPTG), the “increase of percentage of apoptotic cells, MEKK1COOH cells versus control” value is roughly 2 fold and the “percentage of apoptotic cells, L929 cells expressing the MEKK1COOH domain” value is 40%. For the same substance, the “activation of B-Raf (phosphorylation of kinase-inactive MEK-1)” value with B-Raf is “does not significantly activate either isoform of Raf”. Also, the “cellular localization of MEKK1” value in the assay with MEKK1 is given as “had no effect on the cellular localization of MEKK1”. Besides, in the assay with MEKK2, the “cellular localization of MEKK2” value is “induced a translocation of MEKK2 to the plasma membrane”.
